Experimental data reported in PubChem BioAssay AID1963865 (Molecular Pharmacology Branch, DTP, NCI, 2024).

Test system: KRAS PDC multicell spheroid viability
Assay: Anticancer human tumor 825966-067-R-J1-PDC patient-derived colon carcinoma cell line growth inhibition [KRAS2]
Conditions: for IC50: curve of first compound; for viability, T/C: stronger effect = lower value
Outline: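 Combination screen of spheroid viability in tumor-cell co-cultures with endothelial (HUVEC) and mesenchymal stem cell stroma. Each agent was tested in half-log dilutions, topping at clinical Cmax or at 10 microM without a known Cmax.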

[1] = second compound 0.1 µM, first compound 0.0316 µM
[2] = second compound 0.1 µM, first compound 0.1 µM
[3] = second compound 0.316 µM, first compound 0.0316 µM
[4] = second compound 0.316 µM, first compound 0.1 µM
[5] = second compound 1 µM, first compound 0.0316 µM
[6] = second compound 1 µM, first compound 0.1 µM
[7] = second compound 3.16 µM, first compound 0.0316 µM
[8] = second compound 3.16 µM, first compound 0.1 µM
[9] = second compound 10 µM, first compound 0.0316 µM
[10] = second compound 10 µM, first compound 0.1 µM
[11] = second compound 0.1 µM, first compound 0.316 µM
[12] = second compound 0.1 µM, first compound 1 µM
[13] = second compound 0.1 µM, first compound 3.16 µM
[14] = second compound 0.1 µM, first compound 10 µM
[15] = second compound 0.316 µM, first compound 0.316 µM
[16] = second compound 0.316 µM, first compound 1 µM
[17] = second compound 0.316 µM, first compound 3.16 µM
[18] = second compound 0.316 µM, first compound 10 µM
[19] = second compound 1 µM, first compound 0.316 µM
[20] = second compound 1 µM, first compound 1 µM
[21] = second compound 1 µM, first compound 3.16 µM
[22] = second compound 1 µM, first compound 10 µM
[23] = second compound 3.16 µM, first compound 0.316 µM
[24] = second compound 3.16 µM, first compound 1 µM
[25] = second compound 3.16 µM, first compound 3.16 µM
[26] = second compound 3.16 µM, first compound 10 µM
[27] = second compound 10 µM, first compound 0.316 µM
[28] = second compound 10 µM, first compound 1 µM
[29] = second compound 10 µM, first compound 3.16 µM
[30] = second compound 10 µM, first compound 10 µM
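Further: spheroids exposed to compounds for 7 days.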
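Wherever viability, T/C is given: 100% = DMSO vehicle control viability.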

Row | SMILES | IC50 (second compound 0.1 µM) [nM] | IC50 (second compound 0.316 µM) [nM] | IC50 (second compound 1 µM) [nM] | IC50 (second compound 3.16 µM) [nM] | IC50 (second compound 10 µM) [nM] | viability, T/C [1] [%] | viability, T/C [2] [%] | viability, T/C [3] [%] | viability, T/C [4] [%] | viability, T/C [5] [%] | viability, T/C [6] [%] | viability, T/C [7] [%] | viability, T/C [8] [%] | viability, T/C [9] [%] | viability, T/C [10] [%] | viability, T/C [11] [%] | viability, T/C [12] [%] | viability, T/C [13] [%] | viability, T/C [14] [%] | viability, T/C [15] [%] | also measured
1 | CC(C)n1nc(-c2ccc3oc(N)nc3c2)c2c(N)ncnc21 + CC1OCC2(CCN(c3cnc(Sc4ccnc(N)c4Cl)c(N)n3)CC2)C1N | > 100 | > 100 | > 100 | > 100 | < 0.316 | 132 | 138 | 132 | 109 | 140 | 84.8 | 127 | 81.2 | 61.5 | 24.8 | – | – | – | – | – | viability, T/C (second compound 0.1 µM, first compound 0.000316 µM): 89.9%; viability, T/C (second compound 0.1 µM, first compound 0.001 µM): 93.2%; viability, T/C (second compound 0.1 µM, first compound 0.00316 µM): 133%; viability, T/C (second compound 0.1 µM, first compound 0.01 µM): 162%; viability, T/C (second compound 0.316 µM, first compound 0.000316 µM): 101%; viability, T/C (second compound 0.316 µM, first compound 0.001 µM): 115%; viability, T/C (second compound 0.316 µM, first compound 0.00316 µM): 133%; viability, T/C (second compound 0.316 µM, first compound 0.01 µM): 166%; viability, T/C (second compound 1 µM, first compound 0.000316 µM): 115%; viability, T/C (second compound 1 µM, first compound 0.001 µM): 111%; viability, T/C (second compound 1 µM, first compound 0.00316 µM): 162%; viability, T/C (second compound 1 µM, first compound 0.01 µM): 170%; viability, T/C (second compound 3.16 µM, first compound 0.000316 µM): 125%; viability, T/C (second compound 3.16 µM, first compound 0.001 µM): 129%; viability, T/C (second compound 3.16 µM, first compound 0.00316 µM): 140%; viability, T/C (second compound 3.16 µM, first compound 0.01 µM): 123%; viability, T/C (second compound 10 µM, first compound 0.000316 µM): 30.2%; viability, T/C (second compound 10 µM, first compound 0.001 µM): 62.6%; viability, T/C (second compound 10 µM, first compound 0.00316 µM): 32.7%; viability, T/C (second compound 10 µM, first compound 0.01 µM): 30.8%
2 | CC1(C)CCC(CN2CCN(c3ccc(C(=O)NS(=O)(=O)c4ccc(NCC5CCOCC5)c([N+](=O)[O-])c4)c(Oc4cnc5[nH]ccc5c4)c3)CC2)=C(c2ccc(Cl)cc2)C1 + CC1OCC2(CCN(c3cnc(Sc4ccnc(N)c4Cl)c(N)n3)CC2)C1N | 2220 | 2230 | 2140 | 2360 | 1970 | 103 | 88.4 | 102 | 104 | 99 | 110 | 122 | 126 | 69 | 78.2 | 116 | 114 | 25.6 | 11.1 | 119 | viability, T/C [16]: 96.9%; viability, T/C [17]: 29.6%; viability, T/C [18]: 3.21%; viability, T/C [19]: 119%; viability, T/C [20]: 110%; viability, T/C [21]: 19.3%; viability, T/C [22]: 4.73%; viability, T/C [23]: 111%; viability, T/C [24]: 119%; viability, T/C [25]: 26.6%; viability, T/C [26]: 4.06%; viability, T/C [27]: 131%; viability, T/C [28]: 141%; viability, T/C [29]: 11.5%; viability, T/C [30]: 2%
3 | COc1cc(Nc2ncc3c(n2)-c2ccc(Cl)cc2C(c2c(F)cccc2OC)=NC3)ccc1C(=O)O + CC1OCC2(CCN(c3cnc(Sc4ccnc(N)c4Cl)c(N)n3)CC2)C1N | > 10000 | > 10000 | > 10000 | > 10000 | < 31.6 | 132 | 144 | 127 | 111 | 129 | 145 | 64.6 | 127 | 14.9 | 10.9 | 125 | 154 | 154 | 135 | 147 | viability, T/C [16]: 143%; viability, T/C [17]: 154%; viability, T/C [18]: 133%; viability, T/C [19]: 141%; viability, T/C [20]: 122%; viability, T/C [21]: 119%; viability, T/C [22]: 103%; viability, T/C [23]: 107%; viability, T/C [24]: 74.1%; viability, T/C [25]: 101%; viability, T/C [26]: 123%; viability, T/C [27]: 22%; viability, T/C [28]: 20.2%; viability, T/C [29]: 18.5%; viability, T/C [30]: 39.6%
4 | COc1cc2nccc(Oc3ccc(NC(=O)C4(C(=O)Nc5ccc(F)cc5)CC4)cc3)c2cc1OC + CC1OCC2(CCN(c3cnc(Sc4ccnc(N)c4Cl)c(N)n3)CC2)C1N | 1610 | 1710 | 1690 | 1610 | < 31.6 | 89.8 | 105 | 97 | 102 | 109 | 98.1 | 83.5 | 87 | 45.5 | 48.5 | 94.7 | 79.9 | 7.16 | 8.74 | 85.8 | viability, T/C [16]: 87.1%; viability, T/C [17]: 5.92%; viability, T/C [18]: 10%; viability, T/C [19]: 78.6%; viability, T/C [20]: 85.7%; viability, T/C [21]: 7.28%; viability, T/C [22]: 5.65%; viability, T/C [23]: 90.3%; viability, T/C [24]: 81.6%; viability, T/C [25]: 4.94%; viability, T/C [26]: 4.14%; viability, T/C [27]: 43.4%; viability, T/C [28]: 23.1%; viability, T/C [29]: 1.1%; viability, T/C [30]: 0.8%
